Among the data in patent US20230117592A1 (SRI International, priority 2019, published 2023) are IC50 values, retold here.

Structures are written as SMILES. Several values for one entry are separate records, joined by “and”; a condition that tells them apart may be missing. Identical values can stand only once. Like-named read-outs stand apart in the source and are kept apart here.

One test deals with T1, 12-LOX (Homo sapiens, UniProt P18054).
T1 sequence (P18054 1-663): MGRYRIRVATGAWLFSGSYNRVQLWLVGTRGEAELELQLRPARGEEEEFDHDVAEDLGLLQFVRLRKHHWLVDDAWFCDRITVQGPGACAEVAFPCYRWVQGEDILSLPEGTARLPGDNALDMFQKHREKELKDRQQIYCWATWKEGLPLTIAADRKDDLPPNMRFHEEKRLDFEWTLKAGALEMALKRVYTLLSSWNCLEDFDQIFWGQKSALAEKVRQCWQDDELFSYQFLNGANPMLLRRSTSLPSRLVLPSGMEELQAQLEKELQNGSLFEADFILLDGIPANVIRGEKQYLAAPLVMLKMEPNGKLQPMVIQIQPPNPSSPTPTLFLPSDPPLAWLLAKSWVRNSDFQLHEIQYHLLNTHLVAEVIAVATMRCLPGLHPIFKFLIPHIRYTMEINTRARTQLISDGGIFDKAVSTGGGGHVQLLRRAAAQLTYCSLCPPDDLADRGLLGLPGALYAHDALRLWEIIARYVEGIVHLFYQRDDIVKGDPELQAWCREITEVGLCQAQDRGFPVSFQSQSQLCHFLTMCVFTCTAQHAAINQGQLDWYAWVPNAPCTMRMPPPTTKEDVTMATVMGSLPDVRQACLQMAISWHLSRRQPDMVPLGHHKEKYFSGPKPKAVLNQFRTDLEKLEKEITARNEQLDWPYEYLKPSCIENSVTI
In words: 12-LOX fluorescent assay (in vitro lipoxygenase inhibition). Format: biochemical. As to the method:
12-LOX/15-LOX Fluorescent Assay
The enzyme assay (100 ul) contained 50 mM Tris, pH 7.5, 0.05% Tween-20, 20 μM AA/LA, 1 μM DHR123, and 100 nM recombinant 12-LOX enzyme/50 nM recombinant 15-LOX enzyme. Inhibitors (dissolved in DMSO) were plated at 1 μL into 96-well assay microplates followed by a 40 μL addition of a solution containing 12-LOX/15-LOX enzyme. Enzyme was pre-incubated with compounds for 15 mins. The assay was initiated by the addition of a 40 μL substrate solution containing AA/LA, and 20μL addition of a solution containing DHR123. […] Percent inhibition was calculated for each compound dose for IC50 curve fitting using 4 Parameter Logistic Model or Sigmoidal Dose-Response Model.

In another test the target is T2, 5-LOX (Homo sapiens, UniProt P09917).
T2 sequence (P09917 1-674): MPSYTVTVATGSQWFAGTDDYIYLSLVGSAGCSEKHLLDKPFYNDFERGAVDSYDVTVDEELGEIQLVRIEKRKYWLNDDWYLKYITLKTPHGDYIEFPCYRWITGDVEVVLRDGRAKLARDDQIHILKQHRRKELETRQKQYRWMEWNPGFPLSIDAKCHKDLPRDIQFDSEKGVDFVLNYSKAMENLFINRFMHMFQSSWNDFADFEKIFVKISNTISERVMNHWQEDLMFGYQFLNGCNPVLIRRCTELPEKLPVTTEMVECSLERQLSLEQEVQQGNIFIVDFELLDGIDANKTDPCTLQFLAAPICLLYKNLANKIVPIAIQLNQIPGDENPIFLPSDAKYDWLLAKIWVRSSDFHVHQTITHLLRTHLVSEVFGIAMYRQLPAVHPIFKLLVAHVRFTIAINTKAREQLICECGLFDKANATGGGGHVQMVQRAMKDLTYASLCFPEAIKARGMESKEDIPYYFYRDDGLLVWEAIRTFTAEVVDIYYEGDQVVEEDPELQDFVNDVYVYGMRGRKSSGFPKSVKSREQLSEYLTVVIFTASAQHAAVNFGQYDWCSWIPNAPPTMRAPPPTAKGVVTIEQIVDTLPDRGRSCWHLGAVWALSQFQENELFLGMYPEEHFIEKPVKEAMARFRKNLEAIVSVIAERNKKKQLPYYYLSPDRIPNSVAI
Nature of the test: 5-LOX fluorescent assay (in vitro lipoxygenase inhibition). Format: biochemical. The note with it: recombinant 5-LOX cell lysate, 20 μM AA, DHR123 fluorescence; several values in a cell = repeat determinations; read-out: IC50 (μM) values for in vitro lipoxygenase inhibition, 5-LOX. The procedure:
5-LOX FI assay Fluorescent Assay
The enzyme assay (100 μL) contained 50 mM Tris, pH 7.5, 0.1 mM EDTA, 0.3 mM CaCl2, 20 μM AA, 100 μM ATP, 1 μM DHR123, and recombinant 5-LOX cell lysate (0.5 μL/100 μL). Inhibitors (dissolved in DMSO) were plated at 1 μL into 96-well assay microplates followed by a 40 μL addition of a solution containing 5-LOX enzyme. Enzyme was pre-incubated with compounds for 15 mins. The assay was initiated by the addition of a 40 μL substrate solution containing AA and ATP, and 20 μL addition of a solution containing DHR123. […] Percent inhibition was calculated for each compound dose for IC50 curve fitting using 4 Parameter Logistic Model or Sigmoidal Dose-Response Model.

[1] abbreviates: 100 nM recombinant 12-LOX, 20 μM AA, DHR123 fluorescence, several values in a cell = repeat determinations, read-out: IC50 (μM) values for in vitro lipoxygenase inhibition, 12-LOX.

One may read the IC50 as the concentration that gives 50% inhibition. For the compound `c1ccc(Nc2ccc(-c3ccccc3)c(OCCn3cncn3)c2)cc1` [SS20308-0132-01, 2-(2-(1H-1,2,4-triazol-1-yl)ethoxy)-N-phenyl-[1,1′-biphenyl]-4-amine], the IC50 worked out at 0.49 µM at 12-LOX and 0.6 µM at 5-LOX.
As to `c1ccc(Nc2ccc(-c3ccccc3)c(NCCn3cncn3)n2)cc1` [SS20308-0175-01, N^2-(2-(1H-1,2,4-triazol-1-yl)ethyl)-N^6,3-diphenylpyridine-2,6-diamine], the IC50 was found to be 0.26 µM at 12-LOX (setting [1]) and 0.32 µM at 5-LOX.
For `c1ccc(Nc2ccc(-c3cccs3)c(NCCn3cncn3)c2)cc1` [SS20308-0193-01, N^3-(2-(1H-1,2,4-triazol-1-yl)ethyl)-N^1-phenyl-4-(thiophen-2-yl)benzene-1,3-diamine], in that order: 0.14 µM and 0.28 µM.
As for `c1ccc(CNc2ccc(NCCn3cncn3)c(-c3ccncc3)c2)cc1` [SS20308-0215-01, N^1-(2-(1H-1,2,4-triazol-1-yl)ethyl)-N^4-benzyl-2-(pyridin-4-yl)benzene-1,4-diamine], the IC50 was 0.04 µM and 0.03 µM on 12-LOX (setting [1]); 0.07 µM and 0.09 µM at 5-LOX.
Take `Fc1ccc(CNc2ccc(NCCn3cncn3)c(-c3cccc4c3NCC4)c2)cc1` [SS20308-0211-01, N^1-(2-(1H-1,2,4-triazol-1-yl)ethyl)-N^4-(4-fluorobenzyl)-2-(indolin-7-yl)benzene-1,4-diamine]: the IC50 was 0.04 µM and 0.03 µM on 12-LOX (setting [1]); 0.08 µM and 0.07 µM on 5-LOX.
For the compound `CN(C)CCOc1c(Nc2ccccc2)ccc2c(-c3ccccc3)cc(=O)[nH]c12` [SS20308-0072-01, 8-(2-(dimethylamino)ethoxy)-4-phenyl-7-(phenylamino)quinolin-2(1H)-one], the concentration for half-maximal inhibition (IC50) on 12-LOX (setting [1]) came out at 3.37 µM; at 5-LOX, 7.23 µM.
For `Fc1ccc(CNc2ccc(NCCn3cncn3)c(-c3ccccc3)c2F)cc1` [SS20308-0228-01, N^2-(2-(1H-1,2,4-triazol-1-yl)ethyl)-6-fluoro-N^5-(4-fluorobenzyl)-[1,1′-biphenyl]-2,5-diamine], in that order: 0.02 µM and 0.16 µM.
For `COc1ccc(CNc2ccc3c(-c4ccccc4)cc(=O)[nH]c3c2OCCN(C)C)cc1` [SS20308-0053-01, 8-(2-(dimethylamino)ethoxy)-7-((4-methoxybenzyl)amino)-4-phenylquinolin-2(1H)-one], in that order: 5.2 µM and 3.36 µM.
Regarding `CC1(C)CC(Nc2ccc(NCCn3cncn3)cc2)c2ccccc21` (stereo not shown) [SS20308-0275-01, N^1-(2-(1H-1,2,4-triazol-1-yl)ethyl)-N^4-(3,3-dimethyl-2,3-dihydro-1H-inden-1-yl)benzene-1,4-diamine], the IC50 on 12-LOX (setting [1]) is 0.05 µM and 0.04 µM; at 5-LOX it was 0.26 µM and 0.1 µM.
Turning to `c1ccc(CNc2ccc(-c3ccccc3)c(NCCn3cncn3)n2)cc1` [SS20308-0221-01, N^2-(2-(1H-1,2,4-triazol-1-yl)ethyl)-N^6-benzyl-3-phenylpyridine-2,6-diamine], the IC50 on 12-LOX (setting [1]) was 0.11 µM; on 5-LOX it was 0.66 µM.
For `Fc1ccc(Nc2ccc(-c3ccc(Cl)cc3)c(NCCn3cncn3)c2)cc1` [SS20308-0181-01, N^2-(2-(1H-1,2,4-triazol-1-yl)ethyl)-4′-chloro-N^4-(4-fluorophenyl)biphenyl-2,4-diamine], in that order: 0.16 µM and 0.16 µM.
On to `c1ccc(CNc2ccc(NCCn3cncn3)c(-c3ccccc3)c2)cc1` [SS20308-0145-01, N^2-(2-(1H-1,2,4-triazol-1-yl)ethyl)-N^5-benzyl-[1,1′-biphenyl]-2,5-diamine], for which the IC50 was 0.02 µM on 12-LOX (setting [1]); 30 nM and 50 nM (2×) on 5-LOX.
For `Cc1cc(Nc2ccc(Cl)c(F)c2)ccc1NCC1(CN2CCOCC2)COC1` [SS20308-0323-01, N^4-(4-chloro-3-fluorophenyl)-2-methyl-N^1-((3-(morpholinomethyl)oxetan-3-yl)methyl) benzene-1,4-diamine], the half-maximal inhibitory concentration (IC50) on 12-LOX (setting [1]) was determined as 0.02 µM; at 5-LOX, 0.05 µM.
The matching figures for `Fc1ccc(CNc2cc(F)c(NCCn3cncn3)c(-c3ccccc3)c2)cc1` [SS20308-0227-01, N^2-(2-(1H-1,2,4-triazol-1-yl)ethyl)-3-fluoro-N^5-(4-fluorobenzyl)-[1,1′-biphenyl]-2,5-diamine]: 0.03 µM and 0.39 µM.
The matching figures for `Fc1cc(Nc2ccccc2Cl)ccc1NCC1(Cn2cncn2)COC1` [SS20308-0313-01, N^1-((3-((1H-1,2,4-triazol-1-yl)methyl)oxetan-3-yl)methyl)-N^4-(2-chlorophenyl)-2-fluorobenzene-1,4-diamine]: 0.11 µM and 0.35 µM.
With `c1ccc(CNc2cc(-c3ccccc3)c(NCCn3cncn3)cn2)cc1` [SS20308-0213-01, N^5-(2-(1H-1,2,4-triazol-1-yl)ethyl)-N^2-benzyl-4-phenylpyridine-2,5-diamine], the 50% inhibitory concentration (IC50) stood at 0.08 µM at 12-LOX (setting [1]) and 0.61 µM at 5-LOX.
For `Fc1ccc(CNc2ccc(NCCn3cncn3)c(-c3cccc4cc[nH]c34)c2)cc1` [SS20308-0225-01, N^1-(2-(1H-1,2,4-triazol-1-yl)ethyl)-N^4-(4-fluorobenzyl)-2-(1H-indol-7-yl)benzene-1,4-diamine], in that order: 0.03 µM and 0.05 µM.
The matching figures for `CN(CCn1cncn1)c1cccc(Nc2ccc(F)cc2)c1` [SS20308-0252-01, N^1-(2-(1H-1,2,4-triazol-1-yl)ethyl)-N^3-(4-fluorophenyl)-N^1-methylbenzene-1,3-diamine]: 0.26 µM and 1.09 µM.
The matching figures for `Fc1ccc(Nc2ccc(NCC3(CN4CCOCC4)COC3)c(C(F)(F)F)c2)cc1`: 0.04 µM and 0.06 µM.
As for `c1ccc(Nc2cccc(-c3ccccc3)c2NCCn2cncn2)cc1` [SS20308-0153-01, N^2-(2-(1H-1,2,4-triazol-1-yl)ethyl)-N^3-phenylbiphenyl-2,3-diamine], the IC50 at 12-LOX (setting [1]) is 0.2 µM; at 5-LOX, 0.71 µM.
For the compound `Fc1ccc(Nc2ccc(NCC3(CN4CCCC4)COC3)c(C(F)(F)F)c2)cc1` [SS20308-0320-01, N^4-(4-fluorophenyl)-N^1-((3-(pyrrolidin-1-ylmethyl)oxetan-3-yl)methyl)-2-(trifluoromethyl)benzene-1,4-diamine], the values for the IC50 at 12-LOX (setting [1]) and at 5-LOX were 0.08 µM and 0.06 µM, respectively.
For `c1ccc(Nc2ccc(NCCCn3cncn3)c(-c3ccccc3)c2)cc1` [SS20308-0151-01, N^2-(3-(1H-1,2,4-triazol-1-yl)propyl)-N^5-phenylbiphenyl-2,5-diamine], the IC50 against 12-LOX is 0.02 µM; on 5-LOX it was 0.07 µM and 0.04 µM.
Turning to `c1ccc(Nc2cnc(-c3ccccc3)c(NCCn3cncn3)c2)cc1` [SS20308-0173-01, N^3-(2-(1H-1,2,4-triazol-1-yl)ethyl)-N^5,2-diphenylpyridine-3,5-diamine], the IC50 on 12-LOX (setting [1]) stood at 1.09 µM; on 5-LOX it was 2.22 µM.
